Measured values published in US12447167B2, “GM-CSF-producing t-cell control agent and Th1/Th2 immune balance regulator” (National Center of Neurology and Psychiatry, priority 2014, dated 2025).

Legend:
[1] = Disposition after single oral dose, rat; type: in vivo; conditions: male rat, 10 mg/kg single oral, 14C-labeled, fasting
Protocol: (§1) After a single dose of compound 31 labeled with ^14C was orally administered at a predetermined dose to each of a male mouse, a male rat, and a male cynomolgus monkey under fasting conditions, the concentration in blood was measured after a lapse of a given time, and parameters such as maximum plasma concentration Cmax, time Tmax to reach the maximum plasma concentration, half-life t1/2, area under curve AUC0-∞, mean retention time MRT0-∞, and bioavailability BA were calculated. The concentration in blood in humans (normal subjects) was measured and each of the parameters was calculated, in the similar manner as above except that ^14C-unlabeled compound 31 was used.
(§2) In the tables, “N.D.” means not detected.

IL-4 = IL-4 expression level of sorted CD4-positive memory T-cells of MS patients (ELISA of culture supernatant); type: in vivo, human; conditions: 0.3 mg single oral
Protocol: A single dose of compound 31, which is a synthetic glycolipid of the present invention, described in the first aspect was orally administered to each of 2 MS patients (subjects) shown in Table 2 above after obtainment of informed consent. The dose was set to 0.3 mg per person.
Subsequently, T-cell subfractions were prepared from the peripheral blood of each subject by using the density gradient centrifugation method. First, a total of 20 mL of blood was collected from the vein of each subject 24 hours (1st day), 48 hours (2nd day), 72 hours (3rd day), 168 hours (7th day), and 192 hours (8th day) after the administration of compound 31 by using two 10-mL heparin sodium-containing vacuum blood collection tubes. For a control, 20 mL of blood was similarly collected from the vein of each subject one day before the administration of compound 31.
The collected PBMCs were stained with antibodies by the following method. First, 10 μL of a solution consisting of 20 μL of MACS buffer, 0.25 μL of APC-Cy7-anti-CD3 antibody (BioLegend, Inc.), 1 μL of PB-anti-CD4 antibody (BioLegend, Inc.), 1 μL of PerCP-Cy5.5-anti-CD45RA antibody (BioLegend, Inc.), and 1 μL of PC7-anti-CD56 antibody (Beckman Coulter, Inc.) was added to 6×10^6 cells of PBMCs, thoroughly mixed by vortexing, and then left on ice for 20 minutes. CD56 is a detection marker of cells having NK activity, and CD3^−CD56^− cells indicate being antigen-presenting cells (APCs). […]
mCD4T and APC obtained by the sorting were each suspended in a medium consisting of 500 mL of RPMI1640 (GIBCO/Thermo Fisher Scientific Inc.), 5 mL of glutamine (200 mM, Wako Pure Chemical Industries, Ltd.), 5 mL of Pen/strep (10,000 U/mL, GIBCO/Thermo Fisher Scientific Inc.), 0.5 mL of 2-mercaptoethanol (GIBCO/Thermo Fisher Scientific Inc.), and 50 mL of 10% (v/v) Cellect FETAL BOVINE SERUM (MP Biomedicals, LLC), and the number of cells was measured. […]
After the culture, a culture supernatant was collected, and IFN-γ, IL-4, IL-17, and GM-CSF were measured by the ELISA method. […]

[2] = Disposition after single oral dose, cynomolgus monkey; type: in vivo; conditions: male cynomolgus monkey, 10 mg/kg single oral, 14C-labeled, fasting
Protocol: as §1, §2

Question: With CCCCCCCCCCCCCCCCCCCCCCCC(=O)NC(COC1OC(CO)C(O)C(O)C1O)[C@H](O)C(O)CCCCC (stereo in doubt) [compound 31, (2S,3S,4R)-1-O-(α-D-galactosyl)-2-(N-tetracosanoylamino)-1,3,4-nonanetriol] as the compound, how does the AUC(0-inf) ([1]; blood) read?
Answer: 3330 ng·h/mL

Question: What about the AUC(0-t) ([1]; blood) of the same compound?
Answer: 3130 ng·h/mL

Question: What about the half-life ([1]; blood) of the same compound?
Answer: 1560 min

Question: What about the MRT inf ([1]; blood, read-out: MRT0-∞) of the same compound?
Answer: 32.4 h

Question: And the BA [1]?
Answer: 0.51%

Question: And the Rate of absorption [1]?
Answer: 0.96%

Question: And the concentration in blood ([1]; 4 h)?
Answer: 31

Question: What about the concentration in blood ([1]; 8 h) of the same compound?
Answer: 128

Question: And the concentration in blood ([1]; 12 h)?
Answer: 101

Question: And the concentration in blood ([1]; 24 h)?
Answer: 47.1

Question: What about the concentration in blood ([1]; 48 h) of the same compound?
Answer: 18.5

Question: And the concentration in blood ([1]; 72 h)?
Answer: 10.2

Question: And the Cmax ([1]; plasma)?
Answer: 128 ng/mL

Question: And the Tmax ([1]; plasma)?
Answer: 8 h

Question: What about the IL-4 expression level (IL-4; day 8, MBP stimulation, day −1 value 3.63) of the same compound?
Answer: 6.38

Question: And the IL-4 expression level (IL-4; day 8, OVA stimulation, day −1 value 3.66)?
Answer: 7.19

Question: What about the “change of expression level of IL-4” value (IL-4; day8 vs day-1) of the same compound?
Answer: increased

Question: And the AUC(0-inf) ([2]; blood)?
Answer: 2380 ng·h/mL

Question: And the AUC(0-t) ([2]; blood)?
Answer: 2260 ng·h/mL

Question: And the half-life ([2]; blood)?
Answer: 2350 min

Question: What about the MRT inf ([2]; blood, read-out: MRT0-∞) of the same compound?
Answer: 60.9 h

Question: What about the BA [2] of the same compound?
Answer: 0.11%

Question: And the Rate of absorption [2]?
Answer: 0.41%

Question: And the concentration in blood ([2]; 4 h)?
Answer: 1.92

Question: And the concentration in blood ([2]; 8 h)?
Answer: 9.59

Question: And the concentration in blood ([2]; 12 h)?
Answer: 33.4

Question: And the concentration in blood ([2]; 24 h)?
Answer: 35.2

Question: What about the concentration in blood ([2]; 48 h) of the same compound?
Answer: 26.5

Question: What about the concentration in blood ([2]; 72 h) of the same compound?
Answer: 13

Question: And the concentration in blood ([2]; 96 h)?
Answer: 7.1

Question: What about the concentration in blood ([2]; 120 h) of the same compound?
Answer: 4.21

Question: What about the concentration in blood ([2]; 144 h) of the same compound?
Answer: 2.83

Question: What about the concentration in blood ([2]; 168 h) of the same compound?
Answer: 2.05

Question: What about the Cmax ([2]; plasma) of the same compound?
Answer: 39.4 ng/mL

Question: What about the Tmax ([2]; plasma) of the same compound?
Answer: 28 h
